This passage reports T/C results from PubChem BioAssay AID228 (DTP/NCI, 2004).

For this experiment, the system named is BDF1 mice, Friend leukemia sc, tumor weight T/C. As to the kind of experiment: NCI In Vivo Anticancer Drug Screen. Data for tumor model Friend Virus Leukemia (Solid) (subcutaneous) in B6D2F1 (BDF1) mice. Particulars: endpoint: mean tumor weight, schedule: Q01DX011 (ip), higher = larger tumour. Here is the method: The antitumor activity of compounds was measured in mice bearing transplantable tumors. Survival or tumor size were measured and the results are expressed as the measurement made in the treated group (T) divided by the measurement made in the vehicle treated control group (C). The tumor model used in this assay is Friend Virus Leukemia (Solid) (subcutaneous) in B6D2F1 (BDF1) mice

[1] abbreviates: dose: 62.5 mg/kg/injection, vehicle: carboxymethylcellulose (CMC).
Setting [2] is: dose: 100.0 mg/kg/injection, vehicle: carboxymethylcellulose (CMC).
The mark [3] stands for this setting: dose: 125.0 mg/kg/injection, vehicle: carboxymethylcellulose (CMC).
Setting [4] is: dose: 11.5 mg/kg/injection, vehicle: carboxymethylcellulose (CMC).
Setting [5] is: dose: 250.0 mg/kg/injection, vehicle: carboxymethylcellulose (CMC).
Setting [6] is: dose: 500.0 mg/kg/injection, vehicle: carboxymethylcellulose (CMC).

Molecules are shown by their SMILES. Several values for one entry are separate records, joined by “and”; a condition that tells them apart may be missing. Identical values can stand only once. Inconclusive results are not listed.

Turning to `C[C@@H]1C[C@@H]([C@H](O)CC2CC(=O)NC(=O)C2)C(=O)[C@@H](C)C1`, the T/C is 80 % of control (dose: 4.3 mg/kg/injection, vehicle: carboxymethylcellulose (CMC)); 31 % of control and 46 % of control (dose: 15.0 mg/kg/injection, vehicle: carboxymethylcellulose (CMC)).
Consider `ClCCn1cnc2c(SCc3ccccc3)ncnc21`, for which the T/C by setting is: (dose: 18.0 mg/kg/injection, vehicle: carboxymethylcellulose (CMC)) 85 % of control; (dose: 37.0 mg/kg/injection, vehicle: carboxymethylcellulose (CMC)) 35 % of control; (dose: 75.0 mg/kg/injection, vehicle: carboxymethylcellulose (CMC)) 32 % of control; (dose: 150.0 mg/kg/injection, vehicle: carboxymethylcellulose (CMC)) 11 % of control and 35 % of control; (dose: 300.0 mg/kg/injection, vehicle: carboxymethylcellulose (CMC)) 4 % of control.
Regarding `CCC(C)C(NN)C(=O)O` (stereo unspecified), the T/C is, setting by setting: (dose: 2.5 mg/kg/injection, vehicle: other) 84 % of control; (dose: 5.0 mg/kg/injection, vehicle: other) 104 % of control; (dose: 10.0 mg/kg/injection, vehicle: other) 81 % of control; (dose: 20.0 mg/kg/injection, vehicle: other) 89 % of control; (dose: 40.0 mg/kg/injection, vehicle: other) 83 % of control; (dose: 50.0 mg/kg/injection, vehicle: other) 21 % of control.
As to `NC(=O)NO`, the T/C is, setting by setting: (dose: 16.0 mg/kg/injection, vehicle: carboxymethylcellulose (CMC)) 91 % of control; (dose: 32.0 mg/kg/injection, vehicle: carboxymethylcellulose (CMC)) 50 % of control; (dose: 32.0 mg/kg/injection, vehicle: saline) 108 % of control; (dose: 64.0 mg/kg/injection, vehicle: carboxymethylcellulose (CMC)) 8 % of control; (dose: 64.0 mg/kg/injection, vehicle: saline) 7 % of control; (dose: 96.0 mg/kg/injection, vehicle: saline) 3 % of control. The T/C is 4 % of control (dose: 128.0 mg/kg/injection, vehicle: carboxymethylcellulose (CMC)) and 4 % of control (dose: 128.0 mg/kg/injection, vehicle: saline).
Take `O=C(Nc1ccc(C2=NCCN2)cc1)c1ccc(C(=O)Nc2ccc(C3=NCCN3)cc2)cc1`: the T/C (dose: 31.25 mg/kg/injection, vehicle: carboxymethylcellulose (CMC)) is 94 % of control; the T/C under setting [1] was 89 % of control; the T/C under setting [2] is 99 % of control; the T/C under setting [3] is 5 % of control; the T/C (dose: 187.0 mg/kg/injection, vehicle: carboxymethylcellulose (CMC)) was 32 % of control.
Regarding `CSc1ncnc2nc[nH]c12`, the T/C reads like this: (dose: 5.7 mg/kg/injection, vehicle: carboxymethylcellulose (CMC)) 155 % of control; under setting [4], 115 % of control; (dose: 22.5 mg/kg/injection, vehicle: carboxymethylcellulose (CMC)) 59 % of control and 81 % of control; (dose: 45.0 mg/kg/injection, vehicle: carboxymethylcellulose (CMC)) 35 % of control and 42 % of control; (dose: 90.0 mg/kg/injection, vehicle: carboxymethylcellulose (CMC)) 39 % of control.
Regarding `CC(/C=N/N=C(N)N)=N/N=C(N)N`, the T/C (dose: 50.0 mg/kg/injection, vehicle: saline) is 124 % of control.
Turning to `S=c1nc[nH]c2nc[nH]c12`, the T/C (dose: 0.03 mg/kg/injection, vehicle: carboxymethylcellulose (CMC)) was 55 % of control; the T/C (dose: 0.05 mg/kg/injection, vehicle: carboxymethylcellulose (CMC)) was 61 % of control; the T/C (dose: 3.5 mg/kg/injection, vehicle: carboxymethylcellulose (CMC)) is 21 % of control; the T/C (dose: 5.0 mg/kg/injection, vehicle: carboxymethylcellulose (CMC)) is 2 % of control and 10 % of control and 12 % of control; the T/C (dose: 7.0 mg/kg/injection, vehicle: carboxymethylcellulose (CMC)) was 13 % of control; the T/C (dose: 14.0 mg/kg/injection, vehicle: carboxymethylcellulose (CMC)) was 9 % of control. Moreover, the T/C (dose: 42.0 mg/kg/injection, vehicle: carboxymethylcellulose (CMC)) is 4 % of control and 7 % of control and 16 % of control.
Consider `N#CCSc1ncnc2nc[nH]c12`, for which the T/C is 91 % of control (dose: 15.5 mg/kg/injection, vehicle: carboxymethylcellulose (CMC)); 32 % of control (dose: 31.0 mg/kg/injection, vehicle: carboxymethylcellulose (CMC)); 18 % of control under setting [1].
In the case of `Oc1ccc2ccccc2c1N=Nc1ccccc1`, the T/C runs as follows: (dose: 25.0 mg/kg/injection, vehicle: carboxymethylcellulose (CMC)) 90 % of control; (dose: 50.0 mg/kg/injection, vehicle: carboxymethylcellulose (CMC)) 56 % of control; under setting [2], 41 % of control and 47 % of control; (dose: 200.0 mg/kg/injection, vehicle: carboxymethylcellulose (CMC)) 65 % of control and 47 % of control.
In the case of `Nc1nc(SCc2ccccc2)c2ncn(C3CCCC3)c2n1`, the T/C is, setting by setting: under setting [5], 69 % of control; under setting [6], 64 % of control; (dose: 1000.0 mg/kg/injection, vehicle: carboxymethylcellulose (CMC)) 5 % of control.
As to `NC(=O)N(CCCl)N=O`, the T/C is, setting by setting: (dose: 1.0 mg/kg/injection, vehicle: carboxymethylcellulose (CMC)) 104 % of control; (dose: 2.0 mg/kg/injection, vehicle: carboxymethylcellulose (CMC)) 101 % of control; (dose: 4.0 mg/kg/injection, vehicle: carboxymethylcellulose (CMC)) 78 % of control.
As to `O=C1NC2C(NC(=O)N2Cl)N1Cl` (stereo unspecified), the T/C is 105 % of control (dose: 20.0 mg/kg/injection, vehicle: saline) and 103 % of control (dose: 40.0 mg/kg/injection, vehicle: saline).
For `C=CC1CN2CCC1CC2C(O)c1ccnc2ccc(OC)cc12` (stereo unspecified), the T/C is 104 % of control (dose: 27.0 mg/kg/injection, vehicle: carboxymethylcellulose (CMC)); 202 % of control (dose: 27.0 mg/kg/injection, vehicle: other); 226 % of control (dose: 27.5 mg/kg/injection, vehicle: other); 114 % of control (dose: 55.0 mg/kg/injection, vehicle: carboxymethylcellulose (CMC)); 263 % of control (dose: 55.0 mg/kg/injection, vehicle: other); 105 % of control and 219 % of control (dose: 110.0 mg/kg/injection, vehicle: other). The T/C reads like this: (dose: 220.0 mg/kg/injection, vehicle: carboxymethylcellulose (CMC)) 90 % of control; (dose: 220.0 mg/kg/injection, vehicle: other) 204 % of control.
Regarding `N#[N+]c1cnc([O-])[nH]c1=O`, the T/C is 113 % of control (dose: 1.3 mg/kg/injection, vehicle: carboxymethylcellulose (CMC)) and 49 % of control under setting [4].
As for `CC(=O)Nc1ccc(NC(=O)c2ccc([As](O)O)cc2)cc1`, the T/C reads like this: (dose: 30.0 mg/kg/injection, vehicle: carboxymethylcellulose (CMC)) 111 % of control; (dose: 60.0 mg/kg/injection, vehicle: carboxymethylcellulose (CMC)) 109 % of control; (dose: 120.0 mg/kg/injection, vehicle: carboxymethylcellulose (CMC)) 101 % of control.
Take `COc1cc(OC)c(OC)cc1/C=C\c1ccnc2ccccc12`: the T/C is 78 % of control (dose: 63.0 mg/kg/injection, vehicle: carboxymethylcellulose (CMC)); 60 % of control under setting [3]; 64 % of control under setting [5]; 52 % of control under setting [6].
